Results on 1 sequence are retold here after paper PMC7756666, “Non‐Stationary Complementary Non‐Uniform Sampling (NOSCO NUS) for Fast Acquisition of Serial 2D NMR Titration Data” (Angewandte Chemie (International Ed. in English), 2020).

Ends that are not written are not given here.

The target in this experiment is T1, SH3 domain of α‐spectrin (Gallus gallus, UniProt P07751).
T1 construct: SH3 domain of α‐spectrin, has 60 residues
The experiment in a line: NMR titration (2D 1H-15N HSQC), p41 binding by SH3. As to conditions: system as introduced in text; pH 3.5; 8 ligand-to-protein ratios; no spread given; read-out: KD (dissociation constant). The text has this:
The critical information on molecular dissociation constants, K D, and chemical shift perturbation (CSP) amplitudes, Δv, can be derived by individually fitting the correlated signal frequencies, observed in the 2D protein NMR spectra of a titration series, to the equation [Eq. 1]:(1) νI=νI,0+f(x,KD)·ΔνI
where [Eq. 2](2) f(x,KD)=KD+(1+x)cP-(KD+(1+x)cP)^2-4cP2x/2cP
v I is the observed chemical shift (I=^15N or^1H ), v I,0 is the pertaining reference chemical shift in the absence of ligand; Δv I is the maximal CSP amplitude due to ligand binding; x=c L/ c P is the ligand to protein molar ratio; c P is the total protein concentration.
NMR frequency sampling in an indirect time dimension is a lengthy process (fundamental reasons described in SI). Here we propose a method for complementary non‐uniform sampling (NUS) of entire titration series of 2D ^1H‐^15N HSQC spectra within less time even than required for a single conventional spectrum. For this we sample the indirect t 1(^15N) dimension as in a standard NUS experiment, yet with complementary sampling schedules for the different titration points such that each ligand‐to‐protein ratio, x, is sampled for a unique set of t 1 times (Figure 1). A full grid of 256 t 1 increments in a titration series with 8 different x ratios would, thus, be sampled in 8 complementary schedules of 32 points. […]

T1 sequence (P07751 967-1026 limits assumed): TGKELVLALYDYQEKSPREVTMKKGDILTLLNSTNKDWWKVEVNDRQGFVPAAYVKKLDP

What is called Kd is a measure of binding affinity in units of concentration. In the case of APSYSPPPPP [p41], the equilibrium dissociation constant (Kd) worked out at 9 mM.
